Each structure is given as a SMILES string. A value given as a limit tells only on which side of the number the result lay.

The test system of this experiment is MDA-MB-361. The experiment in a line: MDA-MB-361 proliferation. The conditions noted are these: Homo sapiens; in vitro IC50, MDA-MB-361 cells. The experiment is classed as cell-based. As for the experimental part:
The ability of one or more subject compounds to inhibit tumor cell line proliferation is determined according to standard procedures known in the art. For instance, an in vitro cellular proliferation assay can be performed to measure the metabolic activity of live cells. The assay is performed in a 96 well microtiter plate using Alamar Blue reduction. Human tumor cell lines are obtained from ATCC (e.g., MCF7, U-87 MG, MDA-MB-468, PC-3), grown to confluency in T75 flasks, trypsinized with 0.25% trypsin, washed one time with Tumor Cell Media (DMEM+10% FBS), and plated in 90 ul at 5,000 cells/well in Tumor Cell Media. A compound disclosed herein is diluted in Tumor Cell Media and added in a 10 ul volume. Plates are incubated for 72 hours at 37 C and 5% CO2. A volume of 10 uL of Alamar Blue reagent is added to each well and plates are incubated for 3 hours at 37 C and 5% CO2. Alamar Blue fluoresce is read at 560 Ex/590 Em, and IC50 values are calculated using GraphPad Prism 5.
Cells comprising one or more mutations in PI3Kα, including but not limited to breast cancer cells (e.g., MDA-MB-361 and T47D), and cells comprising one or more mutations in PTEN including but not limited to prostate cancer cells (e.g., PC3), are typically grown in cell growth media such as DMEM supplemented with fetal bovine serum and/or antibiotics, and grown to confluency. Cells are then treated with various concentrations of test compound for about 2 hours and subsequently lysed in cell lysis buffer. Lysates are subjected to SDS-PAGE followed by Western blot analysis to detect downstream signaling markers, including but not limited to pAKT(S473), pAKT(T308), pS6, and p4E-BP1. Degree of proliferation (and proliferation inhibition) can also be measured for cells at various doses of compound of the present invention.
Compound `C[C@H]1CN(c2cnc3ccc(-c4ccc5oc(N)nc5c4)nc3n2)CCN1` [Compound 1] yielded an IC50 of under 10 µM.

`Nc1nc2cc(-c3ccc4ncc(N5CCOCC5)nc4n3)ccc2o1` [Compound 2, 5-(3-morpholinopyrido[2,3-b]pyrazin-6-yl)benzo[d]oxazol-2-amine] gave an IC50 of under 1 µM.

`CN1CCN(c2cnc3ccc(-c4ccc5oc(N)nc5c4)nc3n2)CC1` [Compound 4] showed an IC50 of under 10 µM.

In the case of `Nc1nc2cc(-c3ccc4ncc(N5CC(N6CCOCC6)C5)nc4n3)ccc2o1` [Compound 5], the IC50 was under 10 µM.

In turn, `CCOC(=O)N1CCN(c2cnc3ccc(-c4ccc5oc(N)nc5c4)nc3n2)CC1` [Compound 6] yielded an IC50 of under 1 µM.

`CS(=O)(=O)N1CCN(C2CN(c3cnc4ccc(-c5ccc6oc(N)nc6c5)nc4n3)C2)CC1` [Compound 8] gave an IC50 of under 10 µM.

`CCOC(=O)N1CC=C(c2cnc3ccc(-c4ccc5oc(N)nc5c4)nc3n2)CC1` [Compound 9] gave an IC50 of under 1 µM.

Take `C[C@H]1CN(C2CN(c3cnc4ccc(-c5ccc6oc(N)nc6c5)nc4n3)C2)CCN1` [Compound 10]: the IC50 was under 10 µM.

`C[C@@H]1CN(C2CN(c3cnc4ccc(-c5ccc6oc(N)nc6c5)nc4n3)C2)CCN1` [Compound 12] yielded an IC50 of under 10 µM.

For the compound `Nc1nc2cc(-c3ccc4ncc(N5CCC(F)(F)CC5)nc4n3)ccc2o1` [Compound 13], the 50% inhibitory concentration (IC50) is under 10 µM.

The compound `C[C@@H]1COCCN1c1cnc2ccc(-c3ccc4oc(N)nc4c3)nc2n1` [Compound 14] returned an IC50 of under 1 µM.

With `C[C@H]1COCCN1c1cnc2ccc(-c3ccc4oc(N)nc4c3)nc2n1` [Compound 15], the 50% inhibitory concentration (IC50) is under 1 µM.

The compound `Nc1nc2cc(-c3ccc4ncc(-c5cccnc5)cc4n3)ccc2o1` [Compound 16] showed an IC50 of over 10 µM.

The compound `C[C@H]1CN(C2CN(c3cnc4ccc(-c5ccc6oc(N)nc6c5)nc4n3)C2)CCN1C` [Compound 21] gave an IC50 of under 10 µM.

In turn, `Nc1nc2cc(-c3ccc4ncc(N5CCOCC5)cc4n3)ccc2o1` [Compound 22] came in with a 50% inhibitory concentration (IC50) of under 10 µM.

In turn, `CN1CCN(c2cnc3ccc(-c4ccc5oc(N)nc5c4)nc3c2)CC1` [Compound 24] returned an IC50 of under 10 µM.

For the compound `C[C@@H]1CN(C2CN(c3cnc4ccc(-c5ccc6oc(N)nc6c5)nc4n3)C2)CCN1C` [Compound 25], the IC50 was under 10 µM.

In turn, `C[C@@H]1CN(c2cnc3ccc(-c4ccc5oc(N)nc5c4)nc3n2)CCN1` [Compound 27] registered an IC50 of under 10 µM.

`Nc1nc2cc(-c3ccc4ncc(N5CCNC(=O)C5)nc4n3)ccc2o1` [Compound 29] came in with an IC50 of under 1 µM.

Take `C[C@@H](N)C(=O)N1CCN(c2cnc3ccc(-c4ccc5oc(N)nc5c4)nc3n2)CC1` [Compound 31]: the IC50 is under 10 µM.

Turning to `CC(C)N1CCN(c2cnc3ccc(-c4ccc5oc(N)nc5c4)nc3n2)CC1` [Compound 32], the IC50 was under 10 µM.

The compound `NCC(=O)N1CCN(c2cnc3ccc(-c4ccc5oc(N)nc5c4)nc3n2)CC1` [Compound 33] came in with an IC50 of over 10 µM.

Regarding `Nc1nc2cc(-c3ccc4ncc(N5CC(N6CCNCC6)C5)nc4n3)ccc2o1` [Compound 34], the IC50 is over 10 µM.

With `Nc1nc2cc(-c3ccc4ncc(N5CC(N6CCN(CC7CC7)CC6)C5)nc4n3)ccc2o1` [Compound 35], the IC50 is under 10 µM.

Consider `CCOC(=O)N1CCN(c2cnc3ccc(-c4ccc5oc(N)nc5c4)nc3c2)CC1` [Compound 36], for which the IC50 was under 1 µM.

As for `NCC(=O)N1CCN(c2cnc3ccc(-c4ccc5oc(N)nc5c4)nc3c2)CC1` [Compound 37], the half-inhibitory concentration (IC50) is under 10 µM.

Compound `C[C@H](N)C(=O)N1CCN(c2cnc3ccc(-c4ccc5oc(N)nc5c4)nc3c2)CC1` [Compound 38] came in with an IC50 of under 10 µM.

Turning to `C[C@@H](N)C(=O)N1CCN(c2cnc3ccc(-c4ccc5oc(N)nc5c4)nc3c2)CC1` [Compound 39], the IC50 was under 10 µM.

Compound `CC(C)(N)C(=O)N1CCN(c2cnc3ccc(-c4ccc5oc(N)nc5c4)nc3n2)CC1` [Compound 40] gave an IC50 of under 10 µM.

`Nc1nc2cc(-c3ccc4ncc(N5CCN(C(=O)C6(N)CC6)CC5)nc4n3)ccc2o1` [Compound 41] displayed an IC50 of under 10 µM.

`Nc1nc2cc(-c3ccc4ncc(N5CCN(C(=O)C6(N)CC6)CC5)cc4n3)ccc2o1` [Compound 42] yielded a half-inhibitory concentration (IC50) of under 1 µM.

`CC(C)(N)C(=O)N1CCN(c2cnc3ccc(-c4ccc5oc(N)nc5c4)nc3c2)CC1` [Compound 43, 2-amino-1-(4-(6-(2-aminobenzo[d]oxazol-5-yl)-1,5-naphthyridin-3-yl)piperazin-1-yl)-2-methylpropan-1-one] gave an IC50 of under 1 µM.

Take `CC(C)N1CCN(c2cnc3ccc(-c4ccc5oc(N)nc5c4)nc3c2)CC1` [Compound 44]: the half-inhibitory concentration (IC50) was under 10 µM.

The compound `Nc1nc2cc(-c3ccc4ncc(N5CCC(O)CC5)nc4n3)ccc2o1` [Compound 45] showed an IC50 of under 1 µM.

In turn, `Nc1nc2cc(-c3ccc4ncc(N5CC(N6CCN(CCO)CC6)C5)nc4n3)ccc2o1` [Compound 46] had an IC50 of under 10 µM.

As for `C[C@H]1CN(c2cnc3ccc(-c4ccc5oc(N)nc5c4)nc3c2)CCN1` [Compound 47], the half-maximal inhibitory concentration (IC50) is under 10 µM.

`C[C@@H]1CN(c2cnc3ccc(-c4ccc5oc(N)nc5c4)nc3c2)CCN1` [Compound 48] yielded an IC50 of under 10 µM.

Regarding `Cc1nccn1C1CN(c2cnc3ccc(-c4ccc5oc(N)nc5c4)nc3n2)C1` [Compound 50], the IC50 is under 10 µM.

Consider `CC1(C)CN(C2CN(c3cnc4ccc(-c5ccc6oc(N)nc6c5)nc4n3)C2)CCN1` [Compound 52], for which the IC50 was under 1 µM.

Take `Nc1nc2cc(-c3ccc4ncc(N5CC(N6CCOCC6)C5)cc4n3)ccc2o1` [Compound 53]: the IC50 is under 10 µM.

For the compound `C[C@H]1CN(C2CN(c3cnc4ccc(-c5ccc6oc(N)nc6c5)nc4c3)C2)CCN1` [Compound 54], the 50% inhibitory concentration (IC50) is under 1 µM.

Compound `C[C@H]1CN(C2CN(c3cnc4ccc(-c5ccc6oc(N)nc6c5)nc4c3)C2)CCN1C` [Compound 55] returned an IC50 of under 1 µM.

For the compound `C[C@@H]1CN(C2CN(c3cnc4ccc(-c5ccc6oc(N)nc6c5)nc4c3)C2)CCN1` [Compound 56], the IC50 was under 1 µM.

`C[C@@H]1CN(C2CN(c3cnc4ccc(-c5ccc6oc(N)nc6c5)nc4c3)C2)CCN1C` [Compound 57]: the IC50 was under 1 µM.

In turn, `CC1(C)CN(C2CN(c3cnc4ccc(-c5ccc6oc(N)nc6c5)nc4c3)C2)CCN1` [Compound 58] displayed an IC50 of under 1 µM.

As for `Nc1nc2cc(-c3ccc4ncc(N5CC(N6CCN(CC7CC7)CC6)C5)cc4n3)ccc2o1` [Compound 60], the IC50 is under 1 µM.

`C[C@H]1COCCN1C1CN(c2cnc3ccc(-c4ccc5oc(N)nc5c4)nc3n2)C1` [Compound 61] came in with an IC50 of over 10 µM.

As for `Nc1nc2cc(-c3ccc4ncc(N5CCC(O)CC5)cc4n3)ccc2o1` [Compound 62], the IC50 is under 10 µM.

Compound `Cc1nccn1C1CN(c2cnc3ccc(-c4ccc5oc(N)nc5c4)nc3c2)C1` [Compound 63] showed an IC50 of under 10 µM.

In the case of `CN1CCN(C2CN(c3cnc4ccc(-c5ccc6oc(N)nc6c5)nc4c3)C2)CC1=O` [Compound 64], the IC50 was under 1 µM.

In turn, `Nc1nc2cc(-c3ccc4ncc(N5CC(N6CCN(CCO)CC6)C5)cc4n3)ccc2o1` [Compound 65] had an IC50 of under 1 µM.

Consider `C[C@@H]1COCCN1C1CN(c2cnc3ccc(-c4ccc5oc(N)nc5c4)nc3c2)C1` [Compound 66], for which the IC50 was under 10 µM.
